# From ChEMBL document CHEMBL1201862, “PubChem BioAssay data set” (2004)
# Structures can show the parent of a compound that is named as a salt. Active and inactive are the calls of the source.
# Key:
# [1] = target: T1, Replicative DNA helicase DnaB (Mycobacterium tuberculosis, UniProt P9WMR3); experiment: DnaB intein splicing inhibitors, dose response, biochemical, cell-free fluorescence (AID 449749); assay type: functional
# T1 sequence (P9WMR3 whole entry): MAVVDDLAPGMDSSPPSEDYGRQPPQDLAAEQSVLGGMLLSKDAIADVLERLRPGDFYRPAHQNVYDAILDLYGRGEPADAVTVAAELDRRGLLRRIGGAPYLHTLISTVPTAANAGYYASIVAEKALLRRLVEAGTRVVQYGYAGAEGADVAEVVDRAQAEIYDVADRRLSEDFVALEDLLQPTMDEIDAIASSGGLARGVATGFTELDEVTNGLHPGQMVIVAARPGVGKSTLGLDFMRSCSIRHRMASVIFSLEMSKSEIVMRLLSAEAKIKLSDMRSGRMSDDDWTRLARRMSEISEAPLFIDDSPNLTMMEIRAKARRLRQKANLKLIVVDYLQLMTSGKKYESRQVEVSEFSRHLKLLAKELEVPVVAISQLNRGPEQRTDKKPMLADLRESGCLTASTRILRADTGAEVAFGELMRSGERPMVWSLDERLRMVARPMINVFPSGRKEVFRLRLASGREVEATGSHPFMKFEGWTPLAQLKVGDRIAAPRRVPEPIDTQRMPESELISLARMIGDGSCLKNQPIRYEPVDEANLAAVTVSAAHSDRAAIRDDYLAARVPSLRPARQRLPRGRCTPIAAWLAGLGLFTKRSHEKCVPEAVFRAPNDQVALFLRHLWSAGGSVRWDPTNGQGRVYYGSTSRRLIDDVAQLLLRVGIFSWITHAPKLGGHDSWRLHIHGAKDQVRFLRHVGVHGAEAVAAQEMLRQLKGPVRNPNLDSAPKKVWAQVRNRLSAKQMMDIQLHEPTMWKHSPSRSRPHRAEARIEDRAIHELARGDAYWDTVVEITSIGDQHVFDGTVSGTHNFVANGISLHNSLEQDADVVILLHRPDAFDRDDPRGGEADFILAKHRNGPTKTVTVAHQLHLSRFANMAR
# [2] = viability loss in THP-1 monocytes – THP-1 cells, cytotoxicity control for Vif-APOBEC3G degradation inhibitor project, dose response (AID 1117359); assay type: functional; details: THP-1
# [3] = DRD fibroblast viability loss – cell-based, non-viral oncogenic, luminescence, dose response (AID 1934); assay type: functional; details: Homo sapiens
# Vero = experiment: viability of Vero cells under compound – cytotoxicity control for flavivirus capping enzyme inhibitors (AID 588742); assay type: functional; details: Chlorocebus sabaeus
# BJ [4] = experiment: BJ-TERT-LT-ST fibroblast viability loss – cell-based, RAS-independent, luminescence, dose response (AID 1935); assay type: functional; details: Homo sapiens;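 also: BJ fibroblasts immortalized with TERT plus LT and ST oncogenes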
# Protein RecA = target: T2, Protein RecA (Mycobacterium tuberculosis, UniProt P9WHJ3); experiment: Fluorescence Cell-Free Homogeneous Dose Retest to Identify Inhibitors of RecA-Intein Splicing Activity. [Related pubchem assays (depositor defined):AID2097, AID2223, AID489010, AID492950]; assay type: functional
# T2 sequence (P9WHJ3 whole entry): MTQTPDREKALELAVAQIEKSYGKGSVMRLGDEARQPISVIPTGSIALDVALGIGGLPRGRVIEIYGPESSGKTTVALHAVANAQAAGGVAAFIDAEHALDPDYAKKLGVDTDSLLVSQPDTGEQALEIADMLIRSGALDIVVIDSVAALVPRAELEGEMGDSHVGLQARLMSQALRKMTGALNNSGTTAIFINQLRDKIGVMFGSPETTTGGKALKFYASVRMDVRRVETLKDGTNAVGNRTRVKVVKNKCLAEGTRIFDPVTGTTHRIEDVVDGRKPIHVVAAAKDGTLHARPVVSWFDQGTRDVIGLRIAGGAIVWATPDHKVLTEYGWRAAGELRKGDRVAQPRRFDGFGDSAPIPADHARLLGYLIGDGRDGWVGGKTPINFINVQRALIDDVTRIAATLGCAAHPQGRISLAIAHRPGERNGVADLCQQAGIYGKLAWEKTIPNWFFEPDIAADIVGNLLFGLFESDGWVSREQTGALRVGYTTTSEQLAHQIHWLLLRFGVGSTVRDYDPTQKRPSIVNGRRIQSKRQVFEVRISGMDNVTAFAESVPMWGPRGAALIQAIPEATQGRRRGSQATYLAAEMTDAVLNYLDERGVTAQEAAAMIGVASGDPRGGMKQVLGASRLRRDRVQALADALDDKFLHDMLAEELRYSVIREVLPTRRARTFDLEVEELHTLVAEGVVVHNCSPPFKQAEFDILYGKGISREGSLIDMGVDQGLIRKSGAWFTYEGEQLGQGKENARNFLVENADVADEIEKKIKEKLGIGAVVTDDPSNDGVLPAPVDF
# Protein Tat = Protein Tat (Human immunodeficiency virus type 1 group M subtype B (isolate HXB2)(HIV-1), UniProt P04608); assay type: functional;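 also: tat binding to TAR RNA read out by fluorescence polarization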
# [5] = target: T3, RNA-binding protein pos-1 (Caenorhabditis elegans, UniProt G5EF15); experiment: disruptors of C. elegans POS-1 RNA interaction – biochemical, fluorescence polarization, dose response (AID 1964);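 also: purified POS-1 fused to maltose binding protein made in E. coli; potency of compounds blocking POS-1 binding to fluorescent RNA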
# T3 sequence (G5EF15 whole entry): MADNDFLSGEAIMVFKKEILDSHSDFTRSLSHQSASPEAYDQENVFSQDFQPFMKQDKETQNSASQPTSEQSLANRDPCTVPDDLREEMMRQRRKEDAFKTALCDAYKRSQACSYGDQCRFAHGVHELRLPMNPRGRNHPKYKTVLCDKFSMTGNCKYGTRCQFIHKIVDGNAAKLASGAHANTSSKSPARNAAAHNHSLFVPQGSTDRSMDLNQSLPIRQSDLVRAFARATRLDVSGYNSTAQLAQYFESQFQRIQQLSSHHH
# BJ [6] = experiment: cells; assay type: functional, cell-based; details: Homo sapiens
# [7] = target: Glutathione-S-transferase (Schistosoma japonicum, UniProt Q26513); experiment: GST-antibody interaction or FRET quenching – biochemical, TR-FRET, artefact control for Vif-APOBEC3G degradation inhibitor project, dose response (AID 1117362); assay type: functional
# BJ [8] = experiment: BJ-TERT fibroblast viability loss – cell-based, RAS-independent, luminescence, dose response (AID 1933); assay type: functional; details: Homo sapiens
# [9] = target: T4, Zinc finger protein mex-5 (Caenorhabditis elegans, UniProt Q9XUB2); experiment: potency of MEX-5 RNA-binding blockers – biochemical, C. elegans, fluorescence polarization, dose response (AID 1960)
# T4 sequence (Q9XUB2 whole entry): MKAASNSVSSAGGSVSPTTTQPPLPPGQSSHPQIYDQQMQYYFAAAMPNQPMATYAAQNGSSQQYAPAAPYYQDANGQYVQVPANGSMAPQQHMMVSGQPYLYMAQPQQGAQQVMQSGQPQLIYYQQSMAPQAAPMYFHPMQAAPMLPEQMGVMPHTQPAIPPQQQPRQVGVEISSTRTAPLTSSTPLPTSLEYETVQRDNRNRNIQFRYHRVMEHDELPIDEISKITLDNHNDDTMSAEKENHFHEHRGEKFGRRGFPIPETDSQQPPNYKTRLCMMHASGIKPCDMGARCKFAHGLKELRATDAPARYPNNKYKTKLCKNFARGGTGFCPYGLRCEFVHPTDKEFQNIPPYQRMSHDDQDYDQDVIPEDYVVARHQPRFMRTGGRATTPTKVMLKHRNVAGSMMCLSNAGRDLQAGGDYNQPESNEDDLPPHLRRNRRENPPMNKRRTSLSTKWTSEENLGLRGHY
# Genome polyprotein = Genome polyprotein (dengue virus type 2, UniProt P29990); experiment: flavivirus cap methylation enzyme inhibition – biochemical, confirmation dose response, primary screen (AID 588689); assay type: functional
# Streptokinase A = target: T5, Streptokinase A (Streptococcus pyogenes serotype M1, UniProt P10520); experiment: viability-normalized secreted streptokinase activity reduction – plasminogen activation absorbance, OD405, dose response (AID 1914); assay type: functional, Streptococcus pyogenes M1 GAS;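 also: secreted streptokinase activity via plasminogen activation per viability signal from cell pellet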
# T5 sequence (P10520 whole entry): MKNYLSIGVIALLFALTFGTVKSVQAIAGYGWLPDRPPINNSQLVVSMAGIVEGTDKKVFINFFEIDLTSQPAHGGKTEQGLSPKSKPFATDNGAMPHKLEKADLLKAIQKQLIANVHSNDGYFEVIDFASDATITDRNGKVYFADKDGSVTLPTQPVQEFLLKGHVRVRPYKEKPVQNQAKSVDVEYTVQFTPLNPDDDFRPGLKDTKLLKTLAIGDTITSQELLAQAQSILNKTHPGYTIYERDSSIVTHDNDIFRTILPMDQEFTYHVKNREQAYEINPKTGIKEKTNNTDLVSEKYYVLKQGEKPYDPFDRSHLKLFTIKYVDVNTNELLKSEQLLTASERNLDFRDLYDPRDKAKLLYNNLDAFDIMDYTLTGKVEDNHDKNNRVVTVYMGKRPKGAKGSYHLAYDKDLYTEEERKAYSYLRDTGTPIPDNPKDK
# Streptococcus = experiment: GAS UMAA2166 growth inhibition – luminescence, BacTiterGlo, counter-screen for streptokinase expression inhibitor project, dose response (AID 1915); assay type: functional, organism-based;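 also: potency for reduction of bacterial viability or growth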
# [10] = target: T6, Heat shock factor protein 1 (Mus musculus, UniProt P38532); experiment: decrease of HSF1-responsive luciferase luminescence – cell-based, NIH3T3, dose retest, confirmation (AID 2382); assay type: functional;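 also: NIH3T3 fibroblasts with HSF1-driven luciferase reporter stressed by proteasome inhibitor MG132; luminescence from HSF1-driven luciferase expression after 8 hours of MG132 stress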
# T6 sequence (P38532 whole entry): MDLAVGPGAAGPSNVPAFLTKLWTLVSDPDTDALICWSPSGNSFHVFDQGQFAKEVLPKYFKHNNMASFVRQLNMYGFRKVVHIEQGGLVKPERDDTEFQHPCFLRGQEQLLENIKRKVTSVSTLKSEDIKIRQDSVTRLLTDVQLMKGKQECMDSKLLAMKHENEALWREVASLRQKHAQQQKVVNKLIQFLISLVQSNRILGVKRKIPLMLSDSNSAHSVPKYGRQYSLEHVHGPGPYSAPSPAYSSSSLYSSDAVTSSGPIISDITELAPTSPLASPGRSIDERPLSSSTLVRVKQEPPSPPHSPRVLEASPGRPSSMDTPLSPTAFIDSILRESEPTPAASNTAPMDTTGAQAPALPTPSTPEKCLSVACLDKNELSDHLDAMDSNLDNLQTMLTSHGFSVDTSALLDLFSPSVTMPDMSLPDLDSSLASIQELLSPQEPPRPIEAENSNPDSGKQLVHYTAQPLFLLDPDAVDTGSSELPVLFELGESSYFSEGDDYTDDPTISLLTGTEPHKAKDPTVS
# [11] = system: Streptococcus sp. 'group A'; experiment: Streptococcus pyogenes SK(-)GAS viability under kanamycin – luminescence, BacTiterGlo, confirmation, counter-screen for streptokinase expression inhibitor project, dose response (AID 1900); assay type: functional, organism-based
# [12] = viability loss in Vero cells – cytotoxicity control for Vif-APOBEC3G degradation inhibitor project, dose response (AID 1117358); assay type: functional; details: Vero
# [13] = HIV-1 Vif–A3G interaction blockers – biochemical, TR-FRET, GST-Vif 1-94, biotin-A3G peptide, dose response retest, primary screen (AID 1117319); assay type: functional;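 also: TR-FRET signal of purified GST-Vif binding a biotinylated A3G peptide; inhibitors lower the FRET signal by blocking Vif and A3G binding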
# [14] = TAG accumulation blockers, Nile Red lipid stain – cell-based, H9c2 rat cardiomyoblasts, Nile Red fluorescence, primary readout, dose response (AID 743161); assay type: functional
# [15] = Potency on glucagon-like peptide 1 release, dose-response in NCI-H716 cell line, half maximal inhibitory concentration (AID 1117344); assay type: functional, cell-based
# [16] = glucagon-like peptide-1 release potency in STC-1, concentration-response, half-maximal inhibitory concentration in the STC-1 line (AID 1117345); assay type: functional, cell-based
# Glutathione-S-transferase, sequence (Q26513 whole entry): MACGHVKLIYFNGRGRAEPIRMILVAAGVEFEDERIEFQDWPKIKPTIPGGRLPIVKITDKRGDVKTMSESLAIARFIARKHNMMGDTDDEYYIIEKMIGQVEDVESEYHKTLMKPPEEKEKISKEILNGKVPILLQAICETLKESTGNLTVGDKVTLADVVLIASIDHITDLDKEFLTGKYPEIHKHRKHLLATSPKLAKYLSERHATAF
# Genome polyprotein, sequence (P29990 2492-3391 limits assumed): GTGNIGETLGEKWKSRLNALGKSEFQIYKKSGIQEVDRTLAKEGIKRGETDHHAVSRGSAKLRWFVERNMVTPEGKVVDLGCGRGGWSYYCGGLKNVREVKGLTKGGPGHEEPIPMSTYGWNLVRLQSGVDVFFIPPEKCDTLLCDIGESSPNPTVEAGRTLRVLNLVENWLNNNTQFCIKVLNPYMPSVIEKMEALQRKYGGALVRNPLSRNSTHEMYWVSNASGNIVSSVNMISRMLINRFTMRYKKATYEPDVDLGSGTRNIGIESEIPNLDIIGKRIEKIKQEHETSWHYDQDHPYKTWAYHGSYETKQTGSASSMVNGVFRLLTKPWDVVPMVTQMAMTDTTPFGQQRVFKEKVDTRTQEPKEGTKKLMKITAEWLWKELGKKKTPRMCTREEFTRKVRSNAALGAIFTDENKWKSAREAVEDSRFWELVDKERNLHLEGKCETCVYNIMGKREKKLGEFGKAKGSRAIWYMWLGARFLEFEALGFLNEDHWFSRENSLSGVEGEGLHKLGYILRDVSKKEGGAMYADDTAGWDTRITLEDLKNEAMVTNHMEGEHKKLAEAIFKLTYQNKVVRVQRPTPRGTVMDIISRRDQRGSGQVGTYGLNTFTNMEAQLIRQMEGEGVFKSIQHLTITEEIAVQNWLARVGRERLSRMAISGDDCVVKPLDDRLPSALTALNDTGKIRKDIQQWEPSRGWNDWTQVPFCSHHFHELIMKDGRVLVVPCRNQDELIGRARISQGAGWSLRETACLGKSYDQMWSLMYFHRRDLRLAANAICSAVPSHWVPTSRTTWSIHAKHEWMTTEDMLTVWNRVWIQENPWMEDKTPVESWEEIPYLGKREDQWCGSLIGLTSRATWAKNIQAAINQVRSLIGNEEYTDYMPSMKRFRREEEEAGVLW
# Protein Tat, sequence (P04608 whole entry, the tested form may be a part): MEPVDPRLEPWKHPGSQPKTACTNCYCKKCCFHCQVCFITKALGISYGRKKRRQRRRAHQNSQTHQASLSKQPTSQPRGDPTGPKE
compound,measurement,setting,value
O=C1C=C(Nc2cccc3cccnc23)c2ccccc2C1=O,AC50,[1],> 380 µM (inactive)
same,CC50,[2],0.34 µM (active)
same,EC50,[3],2.77 µM (inconclusive)
same,CC50,Vero,4.45 µM (active)
same,EC50,BJ [4],6.37 µM (inconclusive)
same,EC50,Protein RecA,2.89 µM (active)
same,IC50,Protein Tat,> 100 µM (active)
same,EC50,[5],47.6 µM (active)
same,EC50,BJ [6],3.05 µM (active)
same,IC50,[7],> 100 µM (active)
same,EC50,BJ [8],1.57 µM (inconclusive)
same,EC50,[9],28.7 µM (active)
same,IC50,Genome polyprotein,50.4 µM (active)
O=C(NC(=S)N1CCN(c2c(Cl)cccc2[N+](=O)[O-])CC1)c1cccs1,EC50,Streptokinase A,> 150 µM (not active)
same,EC50,Streptococcus,10.2 µM (active)
same,EC50,[10],> 195 µM (not active)
same,EC50,[11],4.51 µM (active)
same,CC50,[12],> 40 µM (active)
COc1cc(O)oc1/C=N/c1ccccc1,IC50,[13],> 100 µM (active)
COCCN1Cc2cccc(C(=O)NCc3cccc(N(C)C)c3)c2C1=O,IC50,[14],> 50 µM (active)
CCN(CC)CCOC(=O)C(Cc1cccc2ccccc12)CC1CCCO1 (configuration not stated) [NAFRONYL OXALATE],IC50,[15],> 40 µM (inactive)
same,IC50,[16],> 40 µM (inactive)
